According to PubChem BioAssay (NCI):
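Five compound concentrations were applied to cells in 96-well plates for 48 hours; endpoints were derived by simple linear interpolation of the resulting dose-response curve. TGI denotes the concentration required for complete inhibition of growth.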

How the values were obtained:
Assay in all cases: inhibition of tumour cell growth, NCI panel, 48 h
786-0 renal = system: 786-0 renal
A549 NSCLC = system: A549 NSCLC
ACHN renal = system: ACHN renal
CCRF-CEM leukemia = system: CCRF-CEM leukemia
COLO 205 colon = system: COLO 205 colon
DLD-1 colon = system: DLD-1 colon
DMS 114 small cell lung = system: DMS 114 small cell lung
DMS 273 small cell lung = system: DMS 273 small cell lung
EKVX NSCLC = system: EKVX NSCLC
HCC-2998 colon = system: HCC-2998 colon
HCT-116 colon = system: HCT-116 colon
HCT-15 colon = system: HCT-15 colon
HL-60(TB) leukemia = system: HL-60(TB) leukemia
HOP-18 NSCLC = system: HOP-18 NSCLC
HOP-92 NSCLC = system: HOP-92 NSCLC
HT29 colon = system: HT29 colon
IGROV1 ovarian = system: IGROV1 ovarian
K-562 leukemia = system: K-562 leukemia
KM12 colon = system: KM12 colon
KM20L2 colon = system: KM20L2 colon
LOX IMVI melanoma = system: LOX IMVI melanoma
LXFL 529 NSCLC = system: LXFL 529 NSCLC
M14 melanoma = system: M14 melanoma
M19-MEL melanoma = system: M19-MEL melanoma
MALME-3M melanoma = system: MALME-3M melanoma
MOLT-4 leukemia = system: MOLT-4 leukemia
NCI-H226 lung = system: NCI-H226 lung
NCI-H23 lung = system: NCI-H23 lung
NCI-H460 lung = system: NCI-H460 lung
NCI-H522 lung = system: NCI-H522 lung
OVCAR-3 ovarian = system: OVCAR-3 ovarian
OVCAR-4 ovarian = system: OVCAR-4 ovarian
OVCAR-5 ovarian = system: OVCAR-5 ovarian
OVCAR-8 ovarian = system: OVCAR-8 ovarian
RPMI-8226 leukemia = system: RPMI-8226 leukemia
RXF 393 renal = system: RXF 393 renal
SF-268 CNS = system: SF-268 CNS
SF-295 CNS = system: SF-295 CNS
SF-539 CNS = system: SF-539 CNS
SK-MEL-2 melanoma = system: SK-MEL-2 melanoma
SK-MEL-28 melanoma = system: SK-MEL-28 melanoma
SK-MEL-5 melanoma = system: SK-MEL-5 melanoma
SK-OV-3 ovarian = system: SK-OV-3 ovarian
SN12C renal = system: SN12C renal
SNB-19 CNS = system: SNB-19 CNS
SNB-75 CNS = system: SNB-75 CNS
SNB-78 CNS = system: SNB-78 CNS
SR leukemia = system: SR leukemia
SW-620 colon = system: SW-620 colon
TK-10 renal = system: TK-10 renal
U251 CNS = system: U251 CNS
UACC-257 melanoma = system: UACC-257 melanoma
UACC-62 melanoma = system: UACC-62 melanoma
UO-31 renal = system: UO-31 renal
XF 498 CNS = system: XF 498 CNS
A498 renal = system: A498 renal
CAKI-1 renal = system: CAKI-1 renal
HOP-62 NSCLC = system: HOP-62 NSCLC

`COc1ccc(CC#C/C=C/C(=O)NCC(C)C)cc1` was tested. Which TGI (786-0 renal) did it give?
Its TGI is > 100 µM.

What about the TGI (A549 NSCLC) of the same molecule?
The TGI was > 100 µM.

And the TGI (ACHN renal)?
The TGI was > 100 µM.

And the TGI (CCRF-CEM leukemia)?
The TGI was > 100 µM.

And the TGI (COLO 205 colon)?
Its TGI is > 100 µM.

What about the TGI (DLD-1 colon) of the same molecule?
The TGI was > 100 µM.

And the TGI (DMS 114 small cell lung)?
The TGI was > 100 µM.

And the TGI (DMS 273 small cell lung)?
The TGI was > 100 µM.

And the TGI (EKVX NSCLC)?
The TGI was > 100 µM.

And the TGI (HCC-2998 colon)?
Its TGI is > 100 µM.

And the TGI (HCT-116 colon)?
The TGI was > 100 µM.

And the TGI (HCT-15 colon)?
The TGI was > 100 µM.

What about the TGI (HL-60(TB) leukemia) of the same molecule?
The TGI was > 100 µM.

And the TGI (HOP-18 NSCLC)?
The TGI was > 100 µM.

And the TGI (HOP-92 NSCLC)?
Its TGI is > 100 µM.

What about the TGI (HT29 colon) of the same molecule?
The TGI was > 100 µM.

And the TGI (IGROV1 ovarian)?
The TGI was > 100 µM.

What about the TGI (K-562 leukemia) of the same molecule?
Its TGI is > 100 µM.

What about the TGI (KM12 colon) of the same molecule?
The TGI was > 100 µM.

What about the TGI (KM20L2 colon) of the same molecule?
The TGI was > 100 µM.

And the TGI (LOX IMVI melanoma)?
Its TGI is > 100 µM.

What about the TGI (LXFL 529 NSCLC) of the same molecule?
The TGI was > 100 µM.

What about the TGI (M14 melanoma) of the same molecule?
Its TGI is > 100 µM.

And the TGI (M19-MEL melanoma)?
The TGI was > 100 µM.

And the TGI (MALME-3M melanoma)?
The TGI was > 100 µM.

What about the TGI (MOLT-4 leukemia) of the same molecule?
The TGI was > 100 µM.

What about the TGI (NCI-H226 lung) of the same molecule?
Its TGI is > 100 µM.

What about the TGI (NCI-H23 lung) of the same molecule?
The TGI was > 100 µM.

And the TGI (NCI-H460 lung)?
Its TGI is > 100 µM.

And the TGI (NCI-H522 lung)?
The TGI was > 100 µM.

What about the TGI (OVCAR-3 ovarian) of the same molecule?
The TGI was > 100 µM.

What about the TGI (OVCAR-4 ovarian) of the same molecule?
Its TGI is > 100 µM.

What about the TGI (OVCAR-5 ovarian) of the same molecule?
The TGI was > 100 µM.

And the TGI (OVCAR-8 ovarian)?
The TGI was > 100 µM.

What about the TGI (RPMI-8226 leukemia) of the same molecule?
Its TGI is > 100 µM.

What about the TGI (RXF 393 renal) of the same molecule?
The TGI was > 100 µM.

What about the TGI (SF-268 CNS) of the same molecule?
Its TGI is > 100 µM.

And the TGI (SF-295 CNS)?
The TGI was > 100 µM.

And the TGI (SF-539 CNS)?
The TGI was > 100 µM.

And the TGI (SK-MEL-2 melanoma)?
The TGI was > 100 µM.

And the TGI (SK-MEL-28 melanoma)?
Its TGI is > 100 µM.

What about the TGI (SK-MEL-5 melanoma) of the same molecule?
The TGI was > 100 µM.

And the TGI (SK-OV-3 ovarian)?
The TGI was > 100 µM.

What about the TGI (SN12C renal) of the same molecule?
Its TGI is > 100 µM.

What about the TGI (SNB-19 CNS) of the same molecule?
The TGI was > 100 µM.

What about the TGI (SNB-75 CNS) of the same molecule?
The TGI was > 100 µM.

And the TGI (SNB-78 CNS)?
The TGI was > 100 µM.

And the TGI (SR leukemia)?
The TGI was > 100 µM.

And the TGI (SW-620 colon)?
The TGI was > 100 µM.

And the TGI (TK-10 renal)?
Its TGI is > 100 µM.

And the TGI (U251 CNS)?
The TGI was > 100 µM.

And the TGI (UACC-257 melanoma)?
The TGI was > 100 µM.

What about the TGI (UACC-62 melanoma) of the same molecule?
Its TGI is > 100 µM.

What about the TGI (UO-31 renal) of the same molecule?
The TGI was > 100 µM.

And the TGI (XF 498 CNS)?
The TGI was > 100 µM.

What does the source list for `O/N=C1/C(=C/c2ccc(Cl)c(Cl)c2)CCCC1C(NO)c1ccc(Cl)c(Cl)c1` (configuration not stated)?
TGI (786-0 renal): 42.4 µM; TGI (A498 renal): 27.4 µM; TGI (A549 NSCLC): 41.3 µM; TGI (ACHN renal): 33 µM; TGI (CAKI-1 renal): 34 µM; TGI (CCRF-CEM leukemia): 46.1 µM; TGI (COLO 205 colon): 35.7 µM; TGI (DLD-1 colon): 37 µM; TGI (DMS 114 small cell lung): 37.3 µM; TGI (DMS 273 small cell lung): 36 µM; TGI (EKVX NSCLC): 42.9 µM; TGI (HCC-2998 colon): 36.8 µM; TGI (HCT-116 colon): 30.3 µM; TGI (HCT-15 colon): 37.2 µM; TGI (HL-60(TB) leukemia): 39 µM; TGI (HOP-18 NSCLC): 30.5 µM; TGI (HOP-62 NSCLC): 48.2 µM; TGI (HT29 colon): 32.1 µM; TGI (IGROV1 ovarian): 38.5 µM; TGI (K-562 leukemia): 63.6 µM; TGI (KM12 colon): 31.9 µM; TGI (KM20L2 colon): 35.3 µM; TGI (LXFL 529 NSCLC): 29.5 µM; TGI (M14 melanoma): 34.6 µM; TGI (M19-MEL melanoma): 33.8 µM; TGI (MALME-3M melanoma): 44.4 µM; TGI (MOLT-4 leukemia): 33.8 µM; TGI (NCI-H23 lung): 35.6 µM; TGI (NCI-H460 lung): 40 µM; TGI (NCI-H522 lung): 25 µM; TGI (OVCAR-3 ovarian): 27.8 µM; TGI (OVCAR-4 ovarian): 26.7 µM; TGI (OVCAR-8 ovarian): 36.7 µM; TGI (RPMI-8226 leukemia): 53.6 µM; TGI (RXF 393 renal): 43.3 µM; TGI (SF-268 CNS): 45.7 µM; TGI (SF-539 CNS): 33.2 µM; TGI (SK-MEL-2 melanoma): 38.5 µM; TGI (SK-MEL-28 melanoma): 34.5 µM; TGI (SK-MEL-5 melanoma): 35.3 µM; TGI (SK-OV-3 ovarian): 39.1 µM; TGI (SN12C renal): 35.2 µM; TGI (SNB-19 CNS): 33.1 µM; TGI (SNB-75 CNS): 31.1 µM; TGI (SNB-78 CNS): 37.7 µM; TGI (SW-620 colon): 36 µM; TGI (TK-10 renal): 36.3 µM; TGI (U251 CNS): 34.2 µM; TGI (UACC-257 melanoma): 34.1 µM; TGI (UACC-62 melanoma): 35 µM; TGI (UO-31 renal): 35.7 µM; TGI (XF 498 CNS): 33.9 µM
